From patent US7709636B2, “Pyrazole sulfonylurea compound and herbicide” (Nissan Chemical Industries, Ltd., priority 2004, dated 2010)

Experiments:
Scirpus juncoides [1] = assay: Herbicidal effect test in submerged condition by treatment during weed-growth stage (1); type: in vivo; conditions: 0.64 g/a, treated at 1st to 2nd leaf stage, 3 weeks after treatment
Method in brief: (§1)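 Paddy-soil pots flooded to 4 cm water depth were sown and grown in a greenhouse at 25 to 30° C until weeds reached 1st to 2nd leaf stage. A wettable powder diluted in water to a predetermined formulation amount was applied to the water surface. Herbicidal effect was scored 3 weeks after treatment against set criteria.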

Echinochloa crus-galli [2] = assay: as above; type: in vivo; conditions: 0.64 g/a, treated at 1st to 2nd leaf stage, 3 weeks after treatment
Method in brief: as §1

Monochoria vaginalis [3] = assay: as above; type: in vivo; conditions: 0.64 g/a, treated at 1st to 2nd leaf stage, 3 weeks after treatment
Method in brief: as §1

Ambrosia elatior [4] = assay: Herbicidal effect test by soil treatment; type: in vivo; conditions: 1.6 g/a, 3 weeks after treatment
Method in brief: (§2)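 Seeds were sown in sterilized diluvial soil under about 1.5 cm cover, then the soil surface was sprayed uniformly with a water-diluted wettable powder at a predetermined formulation amount. Herbicidal effect was scored per species 3 weeks after treatment.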

Avena fatua [5] = assay: Herbicidal effect test by soil treatment; type: in vivo; conditions: 1.6 g/a, 3 weeks after treatment
Method in brief: as §2

Chenopodium album [6] = assay: Herbicidal effect test by soil treatment; type: in vivo; conditions: 1.6 g/a, 3 weeks after treatment
Method in brief: as §2

corn (Zea mays) [7] = assay: Herbicidal effect test by soil treatment; type: in vivo; conditions: 1.6 g/a, 3 weeks after treatment
Method in brief: as §2

Stellaria media [8] = assay: Herbicidal effect test by soil treatment; type: in vivo; conditions: 1.6 g/a, 3 weeks after treatment
Method in brief: as §2

Polygonum blumei [9] = assay: Herbicidal effect test by soil treatment; type: in vivo; conditions: 1.6 g/a, 3 weeks after treatment
Method in brief: as §2

[10] = system: Triticum aestivum (wheat); assay: Herbicidal effect test by soil treatment; type: in vivo; conditions: 1.6 g/a, 3 weeks after treatment
Method in brief: as §2

Echinochloa crus-galli [11] = assay: Herbicidal effect test by soil treatment; type: in vivo; conditions: 1.6 g/a, 3 weeks after treatment
Method in brief: as §2

soybean (Glycine max) [12] = assay: Herbicidal effect test by soil treatment; type: in vivo; conditions: 1.6 g/a, 3 weeks after treatment
Method in brief: as §2

Setaria viridis [13] = assay: Herbicidal effect test by soil treatment; type: in vivo; conditions: 1.6 g/a, 3 weeks after treatment
Method in brief: as §2

Beta vulgaris (beet) [14] = assay: Herbicidal effect test by soil treatment; type: in vivo; conditions: 1.6 g/a, 3 weeks after treatment
Method in brief: as §2

Black-grass [15] = assay: Herbicidal effect test by soil treatment; type: in vivo; conditions: 1.6 g/a, 3 weeks after treatment
Method in brief: as §2

Amaranthus retroflexus [16] = assay: Herbicidal effect test by soil treatment; type: in vivo; conditions: 1.6 g/a, 3 weeks after treatment
Method in brief: as §2

Abutilon avicennae [17] = assay: Herbicidal effect test by soil treatment; type: in vivo; conditions: 1.6 g/a, 3 weeks after treatment
Method in brief: as §2

Digitaria adscendes [18] = assay: Herbicidal effect test by soil treatment; type: in vivo; conditions: 1.6 g/a, 3 weeks after treatment
Method in brief: as §2

direct sown rice [19] = assay: Herbicidal effect test by soil treatment; type: in vivo, Oryza sativa; conditions: 1.6 g/a, 3 weeks after treatment
Method in brief: as §2

Scirpus juncoides [20] = assay: Herbicidal effect test in submerged condition by treatment before weed-generation (1); type: in vivo; conditions: 0.64 g/a, water surface treated on day of sowing, 3 weeks after treatment
Method in brief: (§3)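 Alluvial soil flooded to 4 cm water depth; Echinochloa crus-galli, Scirpus juncoides and Monochoria vaginalis seeds sown, rice transplanted at 2.5-leaf stage. Wettable powder diluted in water applied to water surface on sowing day; greenhouse 25–30° C. Effect scored 0–5 by herbicidal rate after 3 weeks.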

Echinochloa crus-galli [21] = assay: as above; type: in vivo; conditions: 0.64 g/a, water surface treated on day of sowing, 3 weeks after treatment
Method in brief: as §3

Monochoria vaginalis [22] = assay: as above; type: in vivo; conditions: 0.64 g/a, water surface treated on day of sowing, 3 weeks after treatment
Method in brief: as §3

direct sown rice [23] = assay: Herbicidal effect test by foliage treatment; type: in vivo, Oryza sativa; conditions: 1.6 g/a; foliage treatment after growth of 14 days; 3 weeks after treatment
Method in brief: (§4)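 Greenhouse-grown plants (25–30 °C) sprayed on foliage 14 days after sowing with water-diluted wettable powder at set formulation rates. Herbicidal effect scored visually 3 weeks after treatment on a graded scale.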

Ambrosia elatior [24] = assay: Herbicidal effect test by foliage treatment; type: in vivo; conditions: 1.6 g/a; foliage treatment after growth of 14 days; 3 weeks after treatment
Method in brief: as §4

Avena fatua [25] = assay: Herbicidal effect test by foliage treatment; type: in vivo; conditions: 1.6 g/a; foliage treatment after growth of 14 days; 3 weeks after treatment
Method in brief: as §4

Chenopodium album [26] = assay: Herbicidal effect test by foliage treatment; type: in vivo; conditions: 1.6 g/a; foliage treatment after growth of 14 days; 3 weeks after treatment
Method in brief: as §4

corn (Zea mays) [27] = assay: Herbicidal effect test by foliage treatment; type: in vivo; conditions: 1.6 g/a; foliage treatment after growth of 14 days; 3 weeks after treatment
Method in brief: as §4

Stellaria media [28] = assay: Herbicidal effect test by foliage treatment; type: in vivo; conditions: 1.6 g/a; foliage treatment after growth of 14 days; 3 weeks after treatment
Method in brief: as §4

Polygonum blumei [29] = assay: Herbicidal effect test by foliage treatment; type: in vivo; conditions: 1.6 g/a; foliage treatment after growth of 14 days; 3 weeks after treatment
Method in brief: as §4

[30] = system: Triticum aestivum (wheat); assay: Herbicidal effect test by foliage treatment; type: in vivo; conditions: 1.6 g/a; foliage treatment after growth of 14 days; 3 weeks after treatment
Method in brief: as §4

Echinochloa crus-galli [31] = assay: Herbicidal effect test by foliage treatment; type: in vivo; conditions: 1.6 g/a; foliage treatment after growth of 14 days; 3 weeks after treatment
Method in brief: as §4

soybean (Glycine max) [32] = assay: Herbicidal effect test by foliage treatment; type: in vivo; conditions: 1.6 g/a; foliage treatment after growth of 14 days; 3 weeks after treatment
Method in brief: as §4

Setaria viridis [33] = assay: Herbicidal effect test by foliage treatment; type: in vivo; conditions: 1.6 g/a; foliage treatment after growth of 14 days; 3 weeks after treatment
Method in brief: as §4

Beta vulgaris (beet) [34] = assay: Herbicidal effect test by foliage treatment; type: in vivo; conditions: 1.6 g/a; foliage treatment after growth of 14 days; 3 weeks after treatment
Method in brief: as §4

Black-grass [35] = assay: Herbicidal effect test by foliage treatment; type: in vivo; conditions: 1.6 g/a; foliage treatment after growth of 14 days; 3 weeks after treatment
Method in brief: as §4

Amaranthus retroflexus [36] = assay: Herbicidal effect test by foliage treatment; type: in vivo; conditions: 1.6 g/a; foliage treatment after growth of 14 days; 3 weeks after treatment
Method in brief: as §4

Abutilon avicennae [37] = assay: Herbicidal effect test by foliage treatment; type: in vivo; conditions: 1.6 g/a; foliage treatment after growth of 14 days; 3 weeks after treatment
Method in brief: as §4

Digitaria adscendes [38] = assay: Herbicidal effect test by foliage treatment; type: in vivo; conditions: 1.6 g/a; foliage treatment after growth of 14 days; 3 weeks after treatment
Method in brief: as §4

In the case of `COc1cc(OC)nc(NC(=O)NS(=O)(=O)c2c(C3=NOCC(C)(C)O3)c(C)nn2C)n1` [Compound 7, N-((4,6-dimethoxypyrimidin-2-yl)aminocarbonyl)-4-(5,5-dimethyl-5H,6H-1,4,2-dioxadin-3-yl)-1,3-dimethylpyrazole-5-sulfonamide], the “herbicidal effect, B: Scirpus juncoides” value (Scirpus juncoides [1]) is reported as 5 (Herbicidal rate 90% or more (almost complete death)), the “herbicidal effect, A: Echinochloa crus-galli” value (Echinochloa crus-galli [2]) is reported as 5 (Herbicidal rate 90% or more (almost complete death)) and the “herbicidal effect, C: Monochoria vaginalis” value (Monochoria vaginalis [3]) is reported as 5 (Herbicidal rate 90% or more (almost complete death)). The “herbicidal effect, I: Ambrosia elatior” value (Ambrosia elatior [4]) was 5 (Herbicidal rate 90% or more (almost complete death)), the “herbicidal effect, F: Avena fatua” value (Avena fatua [5]) was 4 (Herbicidal rate 70% or more and less than 90%) and the “herbicidal effect, K: Chenopodium album” value (Chenopodium album [6]) was 5 (Herbicidal rate 90% or more (almost complete death)). For the same molecule, the “herbicidal effect, b: corn (Zea mays)” value (corn (Zea mays) [7]) was 4 (Herbicidal rate 70% or more and less than 90%), the “herbicidal effect, M: Stellaria media” value (Stellaria media [8]) was 5 (Herbicidal rate 90% or more (almost complete death)) and the “herbicidal effect, L: Polygonum blumei” value (Polygonum blumei [9]) was 5 (Herbicidal rate 90% or more (almost complete death)). For the same molecule, the “herbicidal effect, e: Triticum aestivum (wheat)” value [10] was 5 (Herbicidal rate 90% or more (almost complete death)), the “herbicidal effect, A: Echinochloa crus-galli” value (Echinochloa crus-galli [11]) was 4 (Herbicidal rate 70% or more and less than 90%) and the “herbicidal effect, c: soybean (Glycine max)” value (soybean (Glycine max) [12]) was 3 (Herbicidal rate 40% or more and less than 70%). The “herbicidal effect, E: Setaria viridis” value (Setaria viridis [13]) was 4 (Herbicidal rate 70% or more and less than 90%), the “herbicidal effect, f: Beta vulgaris (beet)” value (Beta vulgaris (beet) [14]) was 5 (Herbicidal rate 90% or more (almost complete death)) and the “herbicidal effect, G: Black-grass” value (Black-grass [15]) was 5 (Herbicidal rate 90% or more (almost complete death)). The “herbicidal effect, J: Amaranthus retroflexus” value (Amaranthus retroflexus [16]) was 5 (Herbicidal rate 90% or more (almost complete death)), the “herbicidal effect, H: Abutilon avicennae” value (Abutilon avicennae [17]) was 4 (Herbicidal rate 70% or more and less than 90%) and the “herbicidal effect, D: Digitaria adscendes” value (Digitaria adscendes [18]) was 4 (Herbicidal rate 70% or more and less than 90%). The “herbicidal effect, d: direct sown rice” value (direct sown rice [19]) was 5 (Herbicidal rate 90% or more (almost complete death)), the “herbicidal effect, B: Scirpus juncoides” value (Scirpus juncoides [20]) was 5 (Herbicidal rate 90% or more (almost complete death)) and the “herbicidal effect, A: Echinochloa crus-galli” value (Echinochloa crus-galli [21]) was 5 (Herbicidal rate 90% or more (almost complete death)). For the same molecule, the “herbicidal effect, C: Monochoria vaginalis” value (Monochoria vaginalis [22]) was 5 (Herbicidal rate 90% or more (almost complete death)), the “herbicidal effect, d: direct sown rice” value (direct sown rice [23]) was 2 (Herbicidal rate 20% or more and less than 40%) and the “herbicidal effect, I: Ambrosia elatior” value (Ambrosia elatior [24]) was 5 (Herbicidal rate 90% or more (almost complete death)). For the same molecule, the “herbicidal effect, F: Avena fatua” value (Avena fatua [25]) was 5 (Herbicidal rate 90% or more (almost complete death)), the “herbicidal effect, K: Chenopodium album” value (Chenopodium album [26]) was 5 (Herbicidal rate 90% or more (almost complete death)) and the “herbicidal effect, b: corn (Zea mays)” value (corn (Zea mays) [27]) was 5 (Herbicidal rate 90% or more (almost complete death)). The “herbicidal effect, M: Stellaria media” value (Stellaria media [28]) was 5 (Herbicidal rate 90% or more (almost complete death)), the “herbicidal effect, L: Polygonum blumei” value (Polygonum blumei [29]) was 5 (Herbicidal rate 90% or more (almost complete death)) and the “herbicidal effect, e: Triticum aestivum (wheat)” value [30] was 5 (Herbicidal rate 90% or more (almost complete death)). The “herbicidal effect, A: Echinochloa crus-galli” value (Echinochloa crus-galli [31]) was 5 (Herbicidal rate 90% or more (almost complete death)), the “herbicidal effect, c: soybean (Glycine max)” value (soybean (Glycine max) [32]) was 5 (Herbicidal rate 90% or more (almost complete death)) and the “herbicidal effect, E: Setaria viridis” value (Setaria viridis [33]) was 4 (Herbicidal rate 70% or more and less than 90%). The “herbicidal effect, f: Beta vulgaris (beet)” value (Beta vulgaris (beet) [34]) was 5 (Herbicidal rate 90% or more (almost complete death)), the “herbicidal effect, G: Black-grass” value (Black-grass [35]) was 5 (Herbicidal rate 90% or more (almost complete death)) and the “herbicidal effect, J: Amaranthus retroflexus” value (Amaranthus retroflexus [36]) was 4 (Herbicidal rate 70% or more and less than 90%). The “herbicidal effect, H: Abutilon avicennae” value (Abutilon avicennae [37]) was 5 (Herbicidal rate 90% or more (almost complete death)) and the “herbicidal effect, D: Digitaria adscendes” value (Digitaria adscendes [38]) was 5 (Herbicidal rate 90% or more (almost complete death)).
